# According to patent publication US20090111795A1, “Multimers of Heterocyclic Compounds and Their Use” (priority 2005, published 2009):
smiles,measurement,value
CCOC(=O)C1=C(C)N(c2cccc(C(F)(F)F)c2)C(=O)N(CC(=O)NCC[N+](C)(C)CCNC(=O)CN2C(=O)N(c3cccc(C(F)(F)F)c3)C(C)=C(C(=O)OCC)[C@H]2c2ccc(C#N)cc2)[C@@H]1c1ccc(C#N)cc1.O=C([O-])CCC(=O)O,melting point,138 to 143 °C
